# Entries after “also recorded” stand apart in the source; their conditions may differ.
# Experiments:
# p53 = test: Phosphorylation status of p53 (Western analysis); assay type: cell-based, human; settings: RCC45 cells, 9AA 5 μM, 16 h
# Method: (§1) Cells were lysed in RIPA buffer (25 mM Tris HCl, pH 7.2, 125 mM NaCl, 1% NP40, 1% sodium deoxycholate, 1 mM EDTA) containing 1 mM PMSF (Sigma), 10 ug/ml of aprotinin (Sigma) and 10 ug/ml of leupeptin (Sigma). Protein concentrations were determined with the BioRad Dc protein assay kit. Equal protein amounts were run on gradient 4-20% precast gels (Novex) and blotted onto PVDF membranes (Amersham). The following antibodies were used: anti-p53—monoclonal mouse DO1 (Santa-Cruz), anti-p21—monoclonal mouse F-5 (Santa-Cruz), anti-mdm2—monoclonal mouse SMP14 (Santa-Cruz), anti-p65—(C20, Santa Cruz), anti-phospho-p65—(ser536, Cell Signaling), anti-IκBa—(C21, Santa Cruz), anti-p50—(NLS, Santa Cruz), anti-IKK1 (Cell Signaling), anti-γH2X (Cell Signaling), anti-actin (Santa Cruz). p53 phosphorylation status was analyzed using the phospho-p53 sampler kit from Cell Signaling according to the manufacturer's recommendations. HRP-conjugated secondary antibodies were purchased from Santa Cruz. Quantitation of the data was performed using Quantity One software from BioRad.
# [1] = test system: antigen-presenting dendritic cells; test: Flow cytometry of CD11c+/FITC+ dendritic cells in skin draining lymph nodes; assay type: in vivo, BALB/c mice; settings: day +2
# Method: LNC were obtained from hapten-sensitized mice on day +2 post-sensitization. To prevent non-specific antibody binding cells were incubated with rat serum (Rockland, Gilbertsville, Pa.) diluted 1:1000 in staining buffer (Dulbecco's PBS with 2% FCS/0.02% NaN3) for 20 min on ice. Then cells were washed and stained with PE-labeled anti-CD11c mAb to detect DC. Stained cells were washed five times, resuspended in staining buffer and analyzed by two-color flow cytometry using a FACScan (Becton Dickinson, San Jose, Calif.).
# To detect Langerhans cells in the lymph nodes LNC were obtained 48 h after sensitization with 1% FITC and were stained with PE-labeled anti-CD11c mAb and then analyzed by two-color flow cytometry.
# ACHN cells = test: Experimental chemotherapy of tumor xenografts; assay type: in vivo, nude mice; settings: 5-fluorouracil 35 mg/kg
# Method: NIH Swiss athymic nude, male mice, 5-6 weeks old, were purchased from Harlan. 5×10^6 tumor cells were inoculated into the flanks of mice in 100 μL of PBS. When tumors reached 5 mm in diameter, intraperitoneal injections of drugs were started in 100 μL of a solution of 50% DMSO in PBS (except for quinacrine, which was dissolved in PBS). As vehicle, 50% DMSO solution in PBS was used. Tumor size was measured in three dimensions every other day.
# NF-κB = test: Electromobility shift assay and immunofluorescent staining of nuclear NF-κB; assay type: cell-based, human; settings: TNF 10 ng/ml, 10 μM
# Text: All washings were done with blocking solution.
# RCC cell lines = test: Growth inhibition assay, RCC, non-RCC and normal kidney (NKE) cells; assay type: cell-based, human; settings: 6 RCC and 6 non-RCC cell lines, growth inhibition assay
# Method: Growth inhibition assay. […] Cell survival was estimated after an additional 48 hours, using standard Methylene Blue staining followed by extraction and colorimetrical detection of the dye.
# [2] = test system: hapten-specific CD8 T cells producing IFN-γ; test: ELISPOT assay of hapten-specific CD8 T cells producing IFN-γ; assay type: in vivo, BALB/c mice; settings: day +5
# Method: ELISPOT assays to enumerate hapten-specific T cells producing IFN-γ were performed as previously described. Briefly, ELISPOT plates (Millipore, Bedford, Mass.) were coated with 100 ml of […] anti-IFN-γ mAb R26A2 and incubated overnight at […]. The plates were blocked with 1% BSA in PBS for 90 min at 37° C. and washed four times with PBS. LNC suspensions from DNFB-sensitized mice were prepared on day +5 after sensitization and CD8 + T cells were enriched by negative selection using Dynabeads (Dynal A. S., Oslo, Norway). The efficiency of CD4+ T cell depletion was >95% as assessed by flow cytometry. Syngeneic spleen cells from naive mice were treated with […] mitomycin C, hapten-labeled by incubation with DNBS ([…]), and used as stimulator cells. Responder LNC were resuspended in serum-free HL-1 medium (BioWhittaker, Walkersville, Md.) and cultured at 3×10^5 cells/well with 5×10^5 stimulator cells/well 24 h at 37° C. in 5% CO2. In all experiments responder CD8+ T cells cultured with unlabeled splenocytes and LNC from naive mice cultured with DNBS-labeled stimulator cells were used as negative controls. […] The resulting spots were counted on an ImmunoSpot Series 1 Analyzer (Cellular Technologies Ltd., Cleveland, Ohio) that was designed to detect spots with predetermined criteria for size, shape and colorimetric density. […]
# [3] = test system: contact hypersensitivity (CHS) response; test: Hapten sensitization and elicitation of contact hypersensitivity; assay type: in vivo, BALB/c mice; settings: 24 hours after challenge
# Method: For sensitization to DNFB, mice were painted on days 0 and +1 with 25 ml of 0.25% 2,4-dinitrofluorobenzene (DNFB) (Sigma Chemical, Co.) on the shaved abdomen and 5 ml on each footpad. On day +5 sensitized and, as a negative control, unsensitized mice were challenged with 10 ml of 0.2% DNFB on both sides of each ear. Ear thickness was measured in a blinded manner at 24 h intervals after challenge using an engineer's micrometer (Mitutoyo, Elk Grove Village, Ill.) and expressed in units of 10^−4 inches. The magnitude of ear swelling responses is presented in FIG. 12 as the mean increase of each group of 4 sensitized or non-sensitized mice (i.e. […]) ±SEM over the thickness measured just prior to hapten challenge on day +5 post-sensitization. […] Control mice received injections with an equal volume of PBS.
# IκBα = IκBα level (Western analysis); assay type: cell-based, human; settings: TNF 10 ng/ml, 9AA 10 μM
# Method: as §1
smiles,measurement,setting,value
"CCN(CC)CCCC(C)Nc1c2ccc(Cl)cc2nc2ccc(OC)cc12 (stereo not drawn) [QC, quinacrine]",phosphorylation of p53,p53,did not induce the phosphorylation of p53
same,numbers of antigen-presenting dendritic cells in the skin draining lymph nodes,[1]; quinacrine on days 0 and +1 (during 1% FITC sensitization),increased numbers of antigen-presenting dendritic cells
same,numbers of antigen-presenting dendritic cells in the skin draining lymph nodes,[1]; quinacrine on days −2 and −1 (prior to 1% FITC sensitization),decreased numbers of antigen-presenting dendritic cells
same,growth of tumor xenografts,"ACHN cells; ACHN cells subcutaneous in nude mice, QC 50 mg/kg intraperitoneal",inhibited the growth of tumor xenografts; also recorded: same antitumor effect as 5-fluorouracil
same,weight loss,"ACHN cells; ACHN xenograft nude mice, QC 50 mg/kg",without the significant weight loss
same,nuclear accumulation and retention of NF-κB (p65) complexes,NF-κB,greatly prolonged the time of its presence in nuclei
same,IC50 in RCC cells compared with non-RCC cells,RCC cell lines,in the same range as for non-RCC cells
same,increase in priming of antigen-specific effector T cells,[2]; quinacrine on days 0 and +1 (during sensitization),~3 fold
same,priming of antigen-specific T cells (IFN-γ producing CD8 T cells),[2]; quinacrine on days −2 and −1 (just prior to sensitization),inhibits the priming of antigen-specific T cells; also recorded: decreased the priming of antigen-specific T cells
same,CHS/ear swelling response,[3]; quinacrine 80 mg/kg i.p. on days −2 and −1 (just prior to DNFB sensitization),"inhibits the priming of antigen-specific T cells (FIG. 13) and the magnitude and duration of the allergic response elicited; also recorded: decreased the CHS/ear swelling response to near the level observed following challenge of non-immune, naïve mice"
same,CHS/ear swelling response,[3]; quinacrine on days 0 and +1 (during DNFB sensitization),increased the magnitude and persistence of the antigen-specific T cell response; also recorded: increased the CHS response to the challenge
same,TNF-stimulated induction of IκBα,IκBα,blocked

# From patent US20100112012A1, “MODULATION OF IMMUNE RESPONSES” (CLEVELAND CLINIC FOUNDATION, priority 2005, published 2010)
